Test system: adult fleas (C. felis)
Experiment: In vitro membrane feeding exposure to assess flea reproduction
Set-up: species or system Ctenocephalides felis
Conditions: for Effect on hatching of larvae: flea groups able to lay eggs, all concentrations
Method: A membrane feeding method [Wade S E, Georgi J R. Survival and reproduction of artificially fed cat fleas, Ctenocephalides felis Bouché (Siphonaptera: Pulicidae). J Med Entomol 1988, 25: 186-190.] was modified to assess the impact of fluralaner exposure on flea reproduction. Defibrinated sheep blood was prepared in a series of dilutions with fluralaner to obtain concentrations between 50.0 and 0.09 ng/mL. These test solutions were prepared twice and each preparation was tested in duplicate resulting in a total of 4 replicates per concentration, along with a fluralaner negative solvent control (a solvent concentration equivalent to that of the highest concentrated fluralaner test solution) and an untreated control.
Unfed adult fleas (C. felis; 20 males and 20 females) were placed into a plastic unit that was then closed with a gauze lid. A grid inside the plastic unit divided the unit into 2 chambers, an upper chamber for flea feeding and a lower chamber for egg collection. Test or control blood preparations (2 ml) were placed in an artificial membrane closed glass tube that was then placed on the plastic unit as the food source. Feeding units were incubated (38° C. and 60% RH) for 10 days. Test and negative control blood preparations were freshly prepared and exchanged (on days 1, 3, 5, and 8) to permit continuous flea feeding. Fleas were transferred into fresh plastic units on Days 5 and 8 to facilitate egg collection. Collected eggs were mixed with flea nourishment medium and incubated (28° C. and 80% RH) in darkness for 22 (±3) days to enable flea development. Parameters recorded were flea survival, oviposition control, egg hatchability, pupa control, flea-emergence control and reproduction inhibition.

[1] = eggs of parent fleas fed 6.25 ng/mL in blood, exposure day 3
[2] = eggs of parent fleas fed 6.25 ng/mL in blood, exposure day 4
[3] = eggs of parent fleas fed 6.25 ng/mL in blood, exposure day 5
[4] = eggs of parent fleas fed 6.25 ng/mL in blood, exposure day 8
[5] = eggs of parent fleas fed 6.25 ng/mL in blood, exposure day 9
[6] = eggs of parent fleas fed 6.25 ng/mL in blood, exposure day 10
[7] = eggs of parent fleas fed 12.5 ng/mL in blood, exposure day 3
[8] = eggs of parent fleas fed 12.5 ng/mL in blood, exposure day 8
[9] = eggs of parent fleas fed 12.5 ng/mL in blood, exposure day 9

Compound: Cc1cc(C2=NOC(c3cc(Cl)cc(Cl)c3)(C(F)(F)F)C2)ccc1C(=O)NCC(=O)NCC(F)(F)F (stereo not drawn) [fluralaner, 4-[5-(3,5-Dichlorophenyl)-5-trifluoromethyl-4,5-dihydroisoxazol-3-yl]-2-methyl-N-[(2,2,2-trifluoro-ethylcarbamoyl)-methyl]-benzamide]
- Larval Emergence [1]: yes
- Pupal Development Control [1]: 90.2%
- Larval Emergence [2]: yes
- Pupal Development Control [2]: 92.4%
- Larval Emergence [3]: yes
- Pupal Development Control [3]: 87.3%
- Larval Emergence [4]: yes
- Pupal Development Control [4]: 86.4%
- Larval Emergence [5]: yes
- Pupal Development Control [5]: 89.9%
- Larval Emergence [6]: yes
- Pupal Development Control [6]: 86.0%
- Pupal Development Control (eggs of parent fleas fed 12.5 ng/mL in blood, arithmetic mean of exposure days): 85.1%
- Larval Emergence [7]: no
- Pupal Development Control [7]: 100%
- Larval Emergence [8]: yes
- Pupal Development Control [8]: 55.2%
- Larval Emergence [9]: yes
- Pupal Development Control [9]: 100%
- Effect on hatching of larvae: does not affect the hatching of larvae
- Effect on hatching of larvae (listed as Fluralaner): did not affect the hatching of larvae
- Adult Flea Emergence Control (parent fleas fed 0.09 ng/mL in blood, arithmetic mean of exposure days): 0.3%
- Adult Flea Emergence Control (parent fleas fed 0.09 ng/mL in blood, exposure day 3): 1.1%
- Adult Flea Emergence Control (parent fleas fed 0.09 ng/mL in blood, exposure day 4): 0.5%
- Adult Flea Emergence Control (parent fleas fed 0.09 ng/mL in blood, exposure day 5): 0%
- Adult Flea Emergence Control (parent fleas fed 0.09 ng/mL in blood, exposure day 8): 0%
- Adult Flea Emergence Control (parent fleas fed 0.09 ng/mL in blood, exposure day 9): 0%
- Adult Flea Emergence Control (parent fleas fed 0.09 ng/mL in blood, exposure day 10): 0%
- Adult Flea Emergence Control (parent fleas fed 0.19 ng/mL in blood, arithmetic mean of exposure days): 2.2%
- Adult Flea Emergence Control (parent fleas fed 0.19 ng/mL in blood, exposure day 3): 4.6%
- Adult Flea Emergence Control (parent fleas fed 0.19 ng/mL in blood, exposure day 4): 0%
- Adult Flea Emergence Control (parent fleas fed 0.19 ng/mL in blood, exposure day 5): 1.3%
- Adult Flea Emergence Control (parent fleas fed 0.19 ng/mL in blood, exposure day 8): 0.8%
- Adult Flea Emergence Control (parent fleas fed 0.19 ng/mL in blood, exposure day 9): 6.7%
- Adult Flea Emergence Control (parent fleas fed 0.19 ng/mL in blood, exposure day 10): 0%
- Adult Flea Emergence Control (parent fleas fed 0.39 ng/mL in blood, arithmetic mean of exposure days): 1.1%
- Adult Flea Emergence Control (parent fleas fed 0.39 ng/mL in blood, exposure day 3): 0%
- Adult Flea Emergence Control (parent fleas fed 0.39 ng/mL in blood, exposure day 4): 0%
- Adult Flea Emergence Control (parent fleas fed 0.39 ng/mL in blood, exposure day 5): 0%
- Adult Flea Emergence Control (parent fleas fed 0.39 ng/mL in blood, exposure day 8): 1.6%
- Adult Flea Emergence Control (parent fleas fed 0.39 ng/mL in blood, exposure day 9): 5.2%
- Adult Flea Emergence Control (parent fleas fed 0.39 ng/mL in blood, exposure day 10): 0%
- Adult Flea Emergence Control (parent fleas fed 0.78 ng/mL in blood, arithmetic mean of exposure days): 1.5%
- Adult Flea Emergence Control (parent fleas fed 0.78 ng/mL in blood, exposure day 3): 3.8%
- Adult Flea Emergence Control (parent fleas fed 0.78 ng/mL in blood, exposure day 4): 0%
- Adult Flea Emergence Control (parent fleas fed 0.78 ng/mL in blood, exposure day 5): 0%
- Adult Flea Emergence Control (parent fleas fed 0.78 ng/mL in blood, exposure day 8): 3.1%
- Adult Flea Emergence Control (parent fleas fed 0.78 ng/mL in blood, exposure day 9): 1.8%
- Adult Flea Emergence Control (parent fleas fed 0.78 ng/mL in blood, exposure day 10): 0%
- Adult Flea Emergence Control (parent fleas fed 1.56 ng/mL in blood, arithmetic mean of exposure days): 1.7%
- Adult Flea Emergence Control (parent fleas fed 1.56 ng/mL in blood, exposure day 3): 0%
- Adult Flea Emergence Control (parent fleas fed 1.56 ng/mL in blood, exposure day 4): 0%
- Adult Flea Emergence Control (parent fleas fed 1.56 ng/mL in blood, exposure day 5): 0%
- Adult Flea Emergence Control (parent fleas fed 1.56 ng/mL in blood, exposure day 8): 10.2%
- Adult Flea Emergence Control (parent fleas fed 1.56 ng/mL in blood, exposure day 9): 0%
- Adult Flea Emergence Control (parent fleas fed 1.56 ng/mL in blood, exposure day 10): 0%
- Adult Flea Emergence Control (parent fleas fed 3.13 ng/mL in blood, arithmetic mean of exposure days): 5.9%
- Adult Flea Emergence Control (parent fleas fed 3.13 ng/mL in blood, exposure day 3): 4.4%
- Adult Flea Emergence Control (parent fleas fed 3.13 ng/mL in blood, exposure day 4): 11.9%
- Adult Flea Emergence Control (parent fleas fed 3.13 ng/mL in blood, exposure day 5): 3.2%
- Adult Flea Emergence Control (parent fleas fed 3.13 ng/mL in blood, exposure day 8): 8.6%
- Adult Flea Emergence Control (parent fleas fed 3.13 ng/mL in blood, exposure day 9): 7.5%
- Adult Flea Emergence Control (parent fleas fed 3.13 ng/mL in blood, exposure day 10): 0%
- Adult Flea Emergence Control (parent fleas fed 6.25 ng/mL in blood, arithmetic mean of exposure days): 11.5%
- Adult Flea Emergence Control (parent fleas fed 6.25 ng/mL in blood, exposure day 3): 29.2%
- Adult Flea Emergence Control (parent fleas fed 6.25 ng/mL in blood, exposure day 4): 0%
- Adult Flea Emergence Control (parent fleas fed 6.25 ng/mL in blood, exposure day 5): 0%
- Adult Flea Emergence Control (parent fleas fed 6.25 ng/mL in blood, exposure day 8): 9.2%
- Adult Flea Emergence Control (parent fleas fed 6.25 ng/mL in blood, exposure day 9): 30.8%
- Adult Flea Emergence Control (parent fleas fed 6.25 ng/mL in blood, exposure day 10): 0%
- Adult Flea Emergence Control (parent fleas fed 12.5 ng/mL in blood, arithmetic mean of exposure days): 100%
- Adult Flea Emergence Control (parent fleas fed 12.5 ng/mL in blood, exposure day 8): 100%
